Data: US20260183275A1, “SUBSTITUTED QUINOLONE COMPOUNDS USEFUL AS INHIBITORS OF TLR9” (Bristol-Myers Squibb Company, priority 2022, published 2026)
pIC50: −log10 of the molar value.

How the values were obtained:
Assay type in all cases: cell-based
human TLR9 = molecular target: T1, human TLR9 (Homo sapiens, UniProt Q9NR96); test: TLR9 inhibition reporter assay (HEK-Blue cells, SEAP reporter); settings: HEK-Blue cells overexpressing human TLR9; stimulated with ODN2006 5 nM; SEAP read after 22 hour; dose range 0.05 nM-50 μM
T1 construct: host or cells: HEK-Blue cells
T1 sequence (Q9NR96 26-1032): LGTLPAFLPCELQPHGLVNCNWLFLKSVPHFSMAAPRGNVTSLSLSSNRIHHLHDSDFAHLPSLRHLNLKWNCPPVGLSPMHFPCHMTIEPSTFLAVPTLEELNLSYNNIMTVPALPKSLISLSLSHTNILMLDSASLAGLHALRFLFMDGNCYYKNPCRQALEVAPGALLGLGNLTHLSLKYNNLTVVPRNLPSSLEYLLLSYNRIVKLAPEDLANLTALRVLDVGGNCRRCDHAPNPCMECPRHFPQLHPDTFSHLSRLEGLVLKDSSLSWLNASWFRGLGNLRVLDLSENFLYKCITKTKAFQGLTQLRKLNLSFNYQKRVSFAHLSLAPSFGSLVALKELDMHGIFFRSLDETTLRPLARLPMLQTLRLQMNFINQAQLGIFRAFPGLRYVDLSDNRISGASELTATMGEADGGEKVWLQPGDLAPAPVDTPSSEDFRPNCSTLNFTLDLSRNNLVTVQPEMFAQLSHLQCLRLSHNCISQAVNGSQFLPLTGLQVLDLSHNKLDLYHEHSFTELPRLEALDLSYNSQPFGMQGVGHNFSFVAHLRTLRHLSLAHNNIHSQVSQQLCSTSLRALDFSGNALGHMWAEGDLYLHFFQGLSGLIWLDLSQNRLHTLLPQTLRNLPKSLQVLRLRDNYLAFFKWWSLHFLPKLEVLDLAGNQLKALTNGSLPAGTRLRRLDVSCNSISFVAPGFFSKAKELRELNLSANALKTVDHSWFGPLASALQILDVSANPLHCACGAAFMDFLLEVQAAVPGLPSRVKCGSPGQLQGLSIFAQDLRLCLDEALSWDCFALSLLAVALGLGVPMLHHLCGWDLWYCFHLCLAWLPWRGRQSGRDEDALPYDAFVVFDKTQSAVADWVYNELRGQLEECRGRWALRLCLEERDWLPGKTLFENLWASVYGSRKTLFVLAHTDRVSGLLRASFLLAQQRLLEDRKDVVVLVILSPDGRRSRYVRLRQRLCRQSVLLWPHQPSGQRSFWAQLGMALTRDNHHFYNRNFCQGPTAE
How it was run: (§1)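 HEK-Blue cells with NF-κB/AP-1-driven SEAP pre-treated 30 min with compounds (0.05 nM-50 μM), then stimulated with gardiquimod 7.5 μM (TLR7), R848 15.9 μM (TLR8) or ODN2006 5 nM (TLR9). SEAP read after 22 h at 37° C; % inhibition relative to agonist+DMSO and reference-inhibitor wells.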

human TLR7 = molecular target: T2, human TLR7 (Homo sapiens, UniProt Q9NYK1); test: TLR7 inhibition reporter assay (HEK-Blue cells, SEAP reporter); settings: HEK-Blue cells overexpressing human TLR7; stimulated with gardiquimod 7.5 μM; SEAP read after 22 hour; dose range 0.05 nM-50 μM
T2 construct: host or cells: HEK-Blue cells
T2 sequence (Q9NYK1 27-1049): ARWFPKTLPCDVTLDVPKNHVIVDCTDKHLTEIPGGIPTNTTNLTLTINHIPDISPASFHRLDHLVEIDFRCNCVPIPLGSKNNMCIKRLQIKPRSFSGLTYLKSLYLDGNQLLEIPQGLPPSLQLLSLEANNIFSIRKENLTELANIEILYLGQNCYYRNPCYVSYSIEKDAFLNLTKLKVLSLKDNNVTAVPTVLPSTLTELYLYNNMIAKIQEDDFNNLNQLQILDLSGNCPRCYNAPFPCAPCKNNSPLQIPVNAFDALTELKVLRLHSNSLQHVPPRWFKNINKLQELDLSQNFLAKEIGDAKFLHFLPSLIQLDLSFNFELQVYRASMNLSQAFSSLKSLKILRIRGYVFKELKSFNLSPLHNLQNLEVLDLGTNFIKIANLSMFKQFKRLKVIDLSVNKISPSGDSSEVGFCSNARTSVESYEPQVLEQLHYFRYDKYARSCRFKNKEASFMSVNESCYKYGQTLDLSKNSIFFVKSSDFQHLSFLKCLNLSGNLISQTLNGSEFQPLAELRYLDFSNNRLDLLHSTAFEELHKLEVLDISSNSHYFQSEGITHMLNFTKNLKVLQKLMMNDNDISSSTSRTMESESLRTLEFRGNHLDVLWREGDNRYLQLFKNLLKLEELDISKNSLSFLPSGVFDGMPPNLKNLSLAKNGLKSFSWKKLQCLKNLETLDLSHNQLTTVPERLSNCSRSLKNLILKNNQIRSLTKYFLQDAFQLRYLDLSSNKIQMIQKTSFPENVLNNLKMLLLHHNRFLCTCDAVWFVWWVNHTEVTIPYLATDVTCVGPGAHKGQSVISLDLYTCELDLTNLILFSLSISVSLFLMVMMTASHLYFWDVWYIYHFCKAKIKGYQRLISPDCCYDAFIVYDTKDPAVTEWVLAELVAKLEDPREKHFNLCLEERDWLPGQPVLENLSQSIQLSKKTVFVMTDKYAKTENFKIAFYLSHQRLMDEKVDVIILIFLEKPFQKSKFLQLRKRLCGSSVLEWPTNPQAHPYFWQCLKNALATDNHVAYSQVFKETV
How it was run: as §1

human TLR8 = molecular target: T3, human TLR8 (Homo sapiens, UniProt Q9NR97); test: TLR8 inhibition reporter assay (HEK-Blue cells, SEAP reporter); settings: HEK-Blue cells overexpressing human TLR8; stimulated with R848 15.9 μM; SEAP read after 22 hour; dose range 0.05 nM-50 μM
T3 construct: host or cells: HEK-Blue cells
T3 sequence (Q9NR97 27-1041): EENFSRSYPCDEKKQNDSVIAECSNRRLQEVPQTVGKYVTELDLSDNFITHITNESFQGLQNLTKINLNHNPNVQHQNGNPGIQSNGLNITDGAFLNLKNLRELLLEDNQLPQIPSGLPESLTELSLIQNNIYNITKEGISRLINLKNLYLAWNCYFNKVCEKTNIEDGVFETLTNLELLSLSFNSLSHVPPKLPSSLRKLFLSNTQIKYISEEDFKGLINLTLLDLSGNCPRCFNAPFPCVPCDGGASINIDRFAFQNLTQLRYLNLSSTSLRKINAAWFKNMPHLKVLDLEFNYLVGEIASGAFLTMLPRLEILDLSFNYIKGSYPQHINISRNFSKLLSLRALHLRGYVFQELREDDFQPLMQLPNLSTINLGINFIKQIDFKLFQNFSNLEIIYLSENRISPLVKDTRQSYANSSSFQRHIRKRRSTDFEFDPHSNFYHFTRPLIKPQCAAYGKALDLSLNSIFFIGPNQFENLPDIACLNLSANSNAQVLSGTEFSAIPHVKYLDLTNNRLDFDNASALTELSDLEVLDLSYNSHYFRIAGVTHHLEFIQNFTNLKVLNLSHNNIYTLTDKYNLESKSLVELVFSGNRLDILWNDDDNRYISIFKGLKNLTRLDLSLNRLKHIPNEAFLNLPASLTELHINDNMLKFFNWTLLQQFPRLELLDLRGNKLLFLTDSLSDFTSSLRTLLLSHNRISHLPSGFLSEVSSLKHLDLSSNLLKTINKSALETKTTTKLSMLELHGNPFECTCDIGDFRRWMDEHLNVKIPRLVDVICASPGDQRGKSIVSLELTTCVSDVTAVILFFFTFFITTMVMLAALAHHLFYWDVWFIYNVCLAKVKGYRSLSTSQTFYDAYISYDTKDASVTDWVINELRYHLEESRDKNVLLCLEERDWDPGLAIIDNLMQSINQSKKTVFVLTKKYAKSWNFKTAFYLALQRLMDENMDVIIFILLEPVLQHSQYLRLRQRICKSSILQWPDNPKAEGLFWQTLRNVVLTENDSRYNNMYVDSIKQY
How it was run: as §1

| Compound | pIC50 (human TLR9) | pIC50 (human TLR7) | pIC50 (human TLR8) |
| --- | --- | --- | --- |
| CC(C)N1CCN(c2ccc(-c3ccc4[nH]c(=O)c(-c5cccc(F)c5)cc4c3)cc2)CC1 [Example 47, 3-(3-fluorophenyl)-6-{4-[4-(propan-2-yl)piperazin-1-yl]phenyl}-1,2-dihydroquinolin-2-one] | 6.07 | 5.06 | ≤ 4.30 |
| CC(C)N1CCC(c2ccc(-c3ccc4[nH]c(=O)c(-c5ccc(S(N)(=O)=O)cc5)cc4c3)cc2)CC1 [Example 65, 4-(2-oxo-6-{4-[1-(propan-2-yl)piperidin-4-yl]phenyl}-1,2-dihydroquinolin-3-yl)benzene-1-sulfonamide] | 7.26 | 6.47 | 5.31 |
| CC(C)N1CCN(c2ccc(-c3ccc4[nH]c(=O)c(-c5ccc(C(=O)N6CCOCC6)cc5)cc4c3)cc2)CC1 [Example 55, 3-[4-(morpholine-4-carbonyl)phenyl]-6-{4-[4-(propan-2-yl)piperazin-1-yl]phenyl}-1,2-dihydroquinolin-2-one] | 6.42 | ≤ 4.30 | ≤ 4.30 |
| CC(C)N1CCN(c2ccc(-c3ccc4[nH]c(=O)c(-c5ccncc5)cc4c3)cc2)CC1 [Example 17, 6-{4-[4-(propan-2-yl)piperazin-1-yl]phenyl}-3-(pyridin-4-yl)-1,2-dihydroquinolin-2-one] | 6.77 | 6.47 | 6.02 |
| CC(C)N1CCN(c2ccc(-c3ccc4[nH]c(=O)c(-c5ccc(Cl)cc5)cc4c3)cc2)CC1 [Example 39, 3-(4-chlorophenyl)-6-{4-[4-(propan-2-yl)piperazin-1-yl]phenyl}-1,2-dihydroquinolin-2-one] | 6.41 | ≤ 4.30 | ≤ 4.30 |
| CC(C)N1CCC(c2ccc(-c3ccc4c(c3)cc(-c3ccc(N(C)C)cc3)c(=O)n4C)cc2)CC1 [Example 96, 3-[4-(dimethylamino)phenyl]-1-methyl-6-{4-[1-(propan-2-yl)piperidin-4-yl]phenyl}-1,2-dihydroquinolin-2-one] | 5.85 | 4.76 | ≤ 4.30 |
| CC(C)Cn1c(=O)c(-c2ccc(S(C)(=O)=O)cc2)cc2cc(-c3ccc(C4CCN(C(C)C)CC4)cc3)ccc21 [Example 85, 3-(4-methanesulfonylphenyl)-1-(2-methylpropyl)-6-{4-[1-(propan-2-yl)piperidin-4-yl]phenyl}-1,2-dihydroquinolin-2-one] | 6.40 | 4.84 | 4.58 |
| CC(C)N1CCC(c2ccc(-c3ccc4[nH]c(=O)c(-c5cccc(NS(C)(=O)=O)c5)cc4c3)cc2)CC1 [Example 67, N-[3-(2-oxo-6-{4-[1-(propan-2-yl)piperidin-4-yl]phenyl}-1,2-dihydroquinolin-3-yl)phenyl]methanesulfonamide] | 7.17 | 6.09 | ≤ 4.30 |
| CC(C)N1CCN(c2ccc(-c3ccc4[nH]c(=O)c(-c5ccccc5)cc4c3)cc2)CC1 [Example 18, 3-phenyl-6-{4-[4-(propan-2-yl)piperazin-1-yl]phenyl}-1,2-dihydroquinolin-2-one] | 6.72 | 4.78 | 4.79 |
| CN1CCC(c2ccc3[nH]c(=O)c(-c4ccc(S(C)(=O)=O)cc4)cc3c2)CC1 [Example 97, 3-(4-methanesulfonylphenyl)-6-(1-methylpiperidin-4-yl)-1,2-dihydroquinolin-2-one] | 6.02 | 5.60 | 4.70 |
| CC(C)N1CCN(c2ccc(-c3ccc4[nH]c(=O)c(-c5ccc(C(=O)N6CCCC6(C)C)cc5)cc4c3)cc2)CC1 [Example 19, 3-[4-(2,2-dimethylpyrrolidine-1-carbonyl)phenyl]-6-{4-[4-(propan-2-yl)piperazin-1-yl]phenyl}-1,2-dihydroquinolin-2-one] | 6.70 | 5.62 | ≤ 4.30 |
| CC(C)N1CCN(c2ccc(-c3ccc4c(c3)cc(-c3ccc(NC(=O)c5ccccn5)cc3)c(=O)n4C)cc2)CC1 [Example 50, N-[4-(1-methyl-2-oxo-6-{4-[4-(propan-2-yl)piperazin-1-yl]phenyl}-1,2-dihydroquinolin-3-yl)phenyl]pyridine-2-carboxamide] | 6.62 | 4.81 | ≤ 4.30 |
| CC(C)N1CCN(c2ccc(-c3ccc4[nH]c(=O)c(-c5ccccc5Cl)cc4c3)cc2)CC1 [Example 44, 3-(2-chlorophenyl)-6-{4-[4-(propan-2-yl)piperazin-1-yl]phenyl}-1,2-dihydroquinolin-2-one] | 6.15 | 5.25 | ≤ 4.30 |
| O=c1[nH]c2ccc(-c3ccc(C4CCN(C5COC5)CC4)cc3)cc2cc1-c1ccc(OC(F)F)cc1 [Example 91, 3-[4-(difluoromethoxy)phenyl]-6-{4-[1-(oxetan-3-yl)piperidin-4-yl]phenyl}-1,2-dihydroquinolin-2-one] | 6.29 | ≤ 4.30 | ≤ 4.30 |
